Laboratory results from PubChem BioAssay AID330 (DTP/NCI, 2004).
Several values for one entry are separate records, joined by “and”; a condition that tells them apart may be missing. Identical values can stand only once. Toxic doses and inconclusive results are not listed.

Tested on: P388 leukemia ip, CD2F1 mice, survival T/C
Test: NCI In Vivo Anticancer Drug Screen. Data for tumor model P388 Leukemia (intraperitoneal) in CD2F1 (CDF1) mice
Conditions: endpoint: median survival time, higher = longer survival
Method in brief: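 Mice carrying the transplanted tumor received test compound or vehicle. Survival was recorded in each group, and the value is the treated-group measurement divided by that of the vehicle-treated control group.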

[1] = dose: 1.56 mg/kg/injection, schedule: Q01DX009 (ip), vehicle: saline
[2] = dose: 3.12 mg/kg/injection, schedule: Q01DX009 (ip), vehicle: saline
[3] = dose: 60.0 mg/kg/injection, schedule: Q01DX005 (ip), vehicle: saline with Tween-80
[4] = dose: 120.0 mg/kg/injection, schedule: Q01DX005 (ip), vehicle: saline with Tween-80
[5] = dose: 240.0 mg/kg/injection, schedule: Q01DX005 (ip), vehicle: saline with Tween-80
[6] = dose: 50.0 mg/kg/injection, schedule: Q01DX009 (ip), vehicle: saline with Tween-80
[7] = dose: 100.0 mg/kg/injection, schedule: Q01DX009 (ip), vehicle: saline with Tween-80
[8] = dose: 50.0 mg/kg/injection, schedule: Q01DX005 (ip), vehicle: saline with Tween-80
[9] = dose: 100.0 mg/kg/injection, schedule: Q01DX005 (ip), vehicle: saline with Tween-80
[10] = dose: 200.0 mg/kg/injection, schedule: Q01DX005 (ip), vehicle: saline with Tween-80

COCCN=NNc1ccc(C#N)cc1
T/C (dose: 12.5 mg/kg/injection, schedule: Q01DX009 (ip), vehicle: distilled water + Tween-80): 100 % of control | T/C (dose: 25.0 mg/kg/injection, schedule: Q01DX009 (ip), vehicle: distilled water + Tween-80): 105 % of control | T/C (dose: 50.0 mg/kg/injection, schedule: Q01DX009 (ip), vehicle: distilled water + Tween-80): 101 % of control | T/C (dose: 100.0 mg/kg/injection, schedule: Q01DX009 (ip), vehicle: distilled water + Tween-80): 97 % of control

O=C1OCC2OC(=O)c3cc(O)c(O)c(O)c3-c3c(O)c(O)c(O)c4c3C(=O)OC(C2OC(=O)c2cc(O)c(O)c(O)c2-c2c1cc(O)c(O)c2O)C1OC(=O)c2c-4c(O)c(O)c(O)c2C1O (centres undefined)
T/C [1]: 101 % of control | T/C [2]: 100 % of control | T/C (dose: 6.25 mg/kg/injection, schedule: Q01DX009 (ip), vehicle: saline): 99 % of control and 88 % of control and 100 % of control | T/C (dose: 12.5 mg/kg/injection, schedule: Q01DX009 (ip), vehicle: saline): 100 % of control

COC(=O)N(C)SN(C)C(=O)O/N=C(\SC)C(=O)N(C)C
T/C [1]: 101 % of control | T/C [2]: 102 % of control

O=C(CN1CCOCC1)Nc1nc(-c2ccc(Cl)cc2)cs1
T/C (dose: 25.0 mg/kg/injection, schedule: Q01DX005 (ip), vehicle: DMSO): 98 % of control | T/C (dose: 50.0 mg/kg/injection, schedule: Q01DX005 (ip), vehicle: DMSO): 100 % of control | T/C (dose: 100.0 mg/kg/injection, schedule: Q01DX005 (ip), vehicle: DMSO): 99 % of control | T/C (dose: 200.0 mg/kg/injection, schedule: Q01DX005 (ip), vehicle: DMSO): 95 % of control | T/C (dose: 400.0 mg/kg/injection, schedule: Q01DX005 (ip), vehicle: DMSO): 98 % of control

[N-]=[N+]=Nc1ccnc2cc(Cl)ccc12
T/C [3]: 108 % of control | T/C [4]: 100 % of control | T/C [5]: 104 % of control

COc1cc(C(=O)C(CN(C)C)CN(C)C)cc(OC)c1OC
T/C (dose: 12.5 mg/kg/injection, schedule: Q01DX005 (ip), vehicle: saline): 101 % of control | T/C (dose: 25.0 mg/kg/injection, schedule: Q01DX005 (ip), vehicle: saline): 100 % of control | T/C (dose: 50.0 mg/kg/injection, schedule: Q01DX005 (ip), vehicle: saline): 107 % of control and 114 % of control

O=C1C(Cl)=C(n2c(=O)oc3ccccc32)C(=O)c2ccccc21
T/C [6]: 93 % of control | T/C [7]: 98 % of control

C[Si](C)(C)OC=C1CCCCC1
T/C (dose: 50.0 mg/kg/injection, schedule: Q01DX009 (ip), vehicle: olive oil, sesame oil, peanut oil): 113 % of control | T/C (dose: 100.0 mg/kg/injection, schedule: Q01DX009 (ip), vehicle: olive oil, sesame oil, peanut oil): 122 % of control | T/C (dose: 200.0 mg/kg/injection, schedule: Q01DX009 (ip), vehicle: olive oil, sesame oil, peanut oil): 108 % of control

Cc1cc(=O)c2cc3ccc4c5[nH]c(C)cc(=O)c5cc5ccc(c2[nH]1)c3c54
T/C [8]: 101 % of control | T/C [9]: 106 % of control | T/C [10]: 111 % of control

N#Cc1ccccc1N=NNc1ccc(-c2nc(N)nc(N)n2)cc1
T/C (dose: 50.0 mg/kg/injection, schedule: Q04DX003 (ip), vehicle: saline): 100 % of control | T/C (dose: 100.0 mg/kg/injection, schedule: Q04DX003 (ip), vehicle: saline): 95 % of control | T/C (dose: 200.0 mg/kg/injection, schedule: Q04DX003 (ip), vehicle: saline): 100 % of control

O/N=C/C(=Nc1ccc(-c2ccc(N=C(/C=N/O)NO)cc2)cc1)NO
T/C (dose: 60.0 mg/kg/injection, schedule: Q01DX005 (ip), vehicle: Klucel (hydroxypropylcellulose) (HPC)): 103 % of control | T/C (dose: 120.0 mg/kg/injection, schedule: Q01DX005 (ip), vehicle: Klucel (hydroxypropylcellulose) (HPC)): 102 % of control | T/C (dose: 240.0 mg/kg/injection, schedule: Q01DX005 (ip), vehicle: Klucel (hydroxypropylcellulose) (HPC)): 97 % of control

COc1ccc2cc1-c1cc(ccc1O)CCC(O)CC1CCCC(CC(OC(C)=O)CC2)N1 (centres undefined)
T/C (dose: 15.0 mg/kg/injection, schedule: Q01DX009 (ip), vehicle: Klucel (hydroxypropylcellulose) (HPC)): 107 % of control | T/C (dose: 30.0 mg/kg/injection, schedule: Q01DX009 (ip), vehicle: Klucel (hydroxypropylcellulose) (HPC)): 100 % of control | T/C (dose: 60.0 mg/kg/injection, schedule: Q01DX009 (ip), vehicle: Klucel (hydroxypropylcellulose) (HPC)): 100 % of control

O=C(O)c1cc(Br)cc(Br)c1O.O=C(O)c1cc(Br)cc(Br)c1O.[Cu]
T/C (dose: 15.0 mg/kg/injection, schedule: Q01DX005 (ip), vehicle: saline with Tween-80): 92 % of control | T/C (dose: 30.0 mg/kg/injection, schedule: Q01DX005 (ip), vehicle: saline with Tween-80): 94 % of control | T/C [3]: 101 % of control and 92 % of control

O=C1c2ccccc2C(=O)N1c1nncs1
T/C (dose: 100.0 mg/kg/injection, schedule: Q04DX002 (ip), vehicle: saline with Tween-80): 99 % of control | T/C (dose: 200.0 mg/kg/injection, schedule: Q04DX002 (ip), vehicle: saline with Tween-80): 99 % of control | T/C (dose: 400.0 mg/kg/injection, schedule: Q04DX002 (ip), vehicle: saline with Tween-80): 101 % of control

C/C(=C\C(=O)c1ccc(F)cc1)N1CCN(c2ccc(F)cc2)CC1
T/C (dose: 50.0 mg/kg/injection, schedule: Q01DX005 (ip), vehicle: other): 96 % of control | T/C (dose: 100.0 mg/kg/injection, schedule: Q01DX005 (ip), vehicle: other): 93 % of control

COc1cccc(/C=N\O)c1
T/C [7]: 104 % of control | T/C (dose: 200.0 mg/kg/injection, schedule: Q01DX009 (ip), vehicle: saline with Tween-80): 100 % of control | T/C (dose: 400.0 mg/kg/injection, schedule: Q01DX009 (ip), vehicle: saline with Tween-80): 104 % of control

O=S(=O)(Nc1cccc(F)c1)c1ccc(F)cc1
T/C [3]: 103 % of control | T/C [4]: 99 % of control | T/C [5]: 93 % of control

COc1cc2c(c(OC)c1OC)-c1ccc(SC)c(=O)cc1[C@@H](NC1OCC(O)C(O)C1O)CC2 (some centres undefined)
T/C (dose: 1.5 mg/kg/injection, schedule: Q01DX009 (ip), vehicle: water): 105 % of control | T/C (dose: 3.0 mg/kg/injection, schedule: Q01DX009 (ip), vehicle: water): 117 % of control | T/C (dose: 6.0 mg/kg/injection, schedule: Q01DX009 (ip), vehicle: water): 113 % of control | T/C (dose: 12.0 mg/kg/injection, schedule: Q01DX009 (ip), vehicle: water): 121 % of control | T/C (dose: 24.0 mg/kg/injection, schedule: Q01DX009 (ip), vehicle: other): 152 % of control | T/C (dose: 24.0 mg/kg/injection, schedule: Q01DX009 (ip), vehicle: water): 123 % of control | T/C (dose: 48.0 mg/kg/injection, schedule: Q01DX009 (ip), vehicle: other): 155 % of control

CCN(C/C=C/CN(CC)C(=S)Nc1ccccc1)C(=S)Nc1ccccc1
T/C (dose: 50.0 mg/kg/injection, schedule: Q01DX009 (ip), vehicle: saline): 106 % of control | T/C (dose: 100.0 mg/kg/injection, schedule: Q01DX009 (ip), vehicle: saline): 108 % of control | T/C (dose: 200.0 mg/kg/injection, schedule: Q01DX009 (ip), vehicle: saline): 106 % of control

COC(=O)C12C(=O)C(C(=O)OC)(C(c3ccccc3)=C1c1ccccc1)C1OC(=O)OC12 (centres undefined)
T/C [6]: 91 % of control | T/C [7]: 86 % of control

COc1ccc(/C=C/C(=O)c2ccccc(=O)c2O)c(OC)c1OC
T/C (dose: 25.0 mg/kg/injection, schedule: Q01DX005 (ip), vehicle: Klucel (hydroxypropylcellulose) (HPC)): 105 % of control | T/C (dose: 50.0 mg/kg/injection, schedule: Q01DX005 (ip), vehicle: Klucel (hydroxypropylcellulose) (HPC)): 99 % of control | T/C (dose: 100.0 mg/kg/injection, schedule: Q01DX005 (ip), vehicle: Klucel (hydroxypropylcellulose) (HPC)): 109 % of control | T/C (dose: 200.0 mg/kg/injection, schedule: Q01DX005 (ip), vehicle: Klucel (hydroxypropylcellulose) (HPC)): 108 % of control

CCCCOC(=O)/C=C(\Br)C(=O)OCCCC
T/C [6]: 114 % of control | T/C [7]: 124 % of control

Cc1c(Cl)c(C)c(Cl)c(CCl)c1Cl
T/C (dose: 18.75 mg/kg/injection, schedule: Q04DX003 (ip), vehicle: saline sonified): 95 % of control | T/C (dose: 37.5 mg/kg/injection, schedule: Q04DX003 (ip), vehicle: saline sonified): 109 % of control | T/C (dose: 75.0 mg/kg/injection, schedule: Q04DX003 (ip), vehicle: saline sonified): 109 % of control

CCOC(=O)CC(=O)c1sc(Nc2ccccc2)c(C(N)=O)c1N
T/C [8]: 100 % of control | T/C [9]: 94 % of control | T/C [10]: 94 % of control

CC1(CCC(=O)c2ccc3c(c2)OCO3)OCCO1
T/C [3]: 116 % of control | T/C [4]: 105 % of control | T/C [5]: 100 % of control
